Where a SMILES comes first, the peptide text is derived from it. [ ]: non-standard residue; d: D form. pGlu = O=C1CC[C@@H](C(=O)O)N1
Test system: bees
Experiment: Bee oral toxicity test adapted from OECD Test No. 247 (Bumblebee, Acute Oral Toxicity Test)
Type: in vivo
Settings: % survival after 96 hours, compared to Imidacloprid, Figure 9
Method: Bee oral testing protocol was carried out adapted from OECD Test No. 247: Bumblebee, Acute Oral Toxicity Test. The toxicity of SB-P-47 was compared with a negative control of sucrose or vehicle, and with a current commercial insecticide Imidacloprid.

## CC[C@H](C)[C@H](NC(=O)[C@H](C)NC(=O)[C@@H]1CCC(=O)N1)C(=O)N[C@@H](CCSC)C(=O)N[C@@H](C)C(=O)N[C@@H](CCCNC(=N)N)C(=O)N1CCC[C@H]1C(=O)N[C@@H](CCC(N)=O)C(=O)N[C@H](C(=O)N1CCC[C@H]1C(=O)N[C@@H](CCCNC(=N)N)C(=O)N[C@@H](CC(C)C)C(N)=O)C(C)C [SB-P-47, [Pyr]-AIMARPQVPRL-[NH2]] ([pGlu]AIMARPQVPRL-NH2)
  toxicity to key pollinator species such as bees: far lower toxicity
